Experimental data published in patent US9204653B2, “5-fluoro pyrimidine derivatives” (DOW AGROSCIENCES LLC, priority 2008, dated 2015).
Like-named read-outs stand apart in the source and are kept apart here.

Experiments:
[1] = system: Mycosphaerella graminicola; Anamorph: Septoria tritici; Bayer Code SEPTTR; assay: Leaf blotch of wheat, foliar fungicide treatment, one day protectant (1DP) or three day curative (3DC); format: in vivo, Septoria tritici on wheat plants (variety Yuma); settings: Zymoseptoria tritici, rating of percent disease control
[2] = system: Cercospora beticola; Bayer Code CERCBE; assay: Leaf spot of sugar beets; format: in vivo, Cercospora beticola on sugar beets (variety HH-88); settings: 24 h, % disease control rating, one day protectant; for pest or weed control at 25 ppm: read-out: CERCBE 1 DP 25 ppm; for pest or weed control at 75 ppm: read-out: CERCBE 1 DP 75 ppm
[3] = system: Venturia inaequalis; Bayer Code VENTIN; assay: Apple scab; format: in vivo; settings: 24 h, % disease control rating, one day protectant; for pest or weed control at 25 ppm: read-out: VENTIN 1 DP 25 ppm; for pest or weed control at 75 ppm: read-out: VENTIN 1 DP 75 ppm
[4] = 24 h, one day protectant (1DP), read-out: SETTTR 1DP 25 ppm
[5] = 24 h, one day protectant (1DP), read-out: SEPTTR 1DP 100 ppm
[6] = 72 h, three day curative (3DC), read-out: SEPTTR 3DC 25 ppm
[7] = 72 h, three day curative (3DC), read-out: SEPTTR 3DC 100 ppm

Compound | pest or weed control at 25 ppm [1, 4] | pest or weed control at 100 ppm [1, 5] | pest or weed control at 25 ppm [1, 6] | pest or weed control at 100 ppm [1, 7] | pest or weed control at 25 ppm [2] | pest or weed control at 75 ppm [2] | pest or weed control at 25 ppm [3] | pest or weed control at 75 ppm [3] | pest or weed control at 25 ppm ([1]; 24 h, one day protectant, read-out: SETTTR 1DP 25 ppm) | pest or weed control at 100 ppm ([1]; 24 h, one day protectant, read-out: SEPTTR 1DP 100 ppm) | pest or weed control at 25 ppm ([1]; 72 h, three day curative, read-out: SEPTTR 3DC 25 ppm) | pest or weed control at 100 ppm ([1]; 72 h, three day curative, read-out: SEPTTR 3DC 100 ppm)
Nc1nc(OCc2ccc(F)cc2C(F)(F)F)ncc1F [Compound 271] | 76 to 100% | 76 to 100% | 51 to 75% | 76 to 100% | 26 to 50% | 26 to 50% | 26 to 50% | 51 to 75% |  |  |  | 
COc1cc(COc2ncc(F)c(N)n2)cc(Cl)n1 [Compound 311] | 76 to 100% | 76 to 100% | 76 to 100% | 76 to 100% | 26 to 50% | 26 to 50% | 26 to 50% | 26 to 50% |  |  |  | 
Nc1nc(OCc2ccc(-c3ccccn3)s2)ncc1F [Compound 316] | 76 to 100% | 76 to 100% | 76 to 100% | 76 to 100% | 51 to 75% | 76 to 100% | 76 to 100% | 76 to 100% |  |  |  | 
CC(Oc1ncc(F)c(N)n1)c1cccc2ccccc12 (centres unmarked) [Compound 335] | 76 to 100% | 76 to 100% | 76 to 100% | 76 to 100% | 26 to 50% | 76 to 100% | 76 to 100% | 76 to 100% |  |  |  | 
CS(=O)(=O)Oc1ncc(F)c(N)n1 [Compound 337] | 26 to 50% | 76 to 100% | 26 to 50% | 26 to 50% | 51 to 75% | 76 to 100% | 51 to 75% | 76 to 100% |  |  |  | 
COc1c(F)cccc1COc1ncc(F)c(N)n1 [Compound 341] | 76 to 100% | 76 to 100% | 76 to 100% | 76 to 100% | 0 to 25% | 0 to 25% | 26 to 50% | 0 to 25% |  |  |  | 
Nc1nc(OCc2ccccc2N2CCOCC2)ncc1F [Compound 342] | 76 to 100% | 76 to 100% | 76 to 100% | 76 to 100% | 26 to 50% | 76 to 100% | 76 to 100% | 76 to 100% |  |  |  | 
CCOCNc1nc(OCc2cccs2)ncc1F [Compound 343] | 26 to 50% | 76 to 100% | 76 to 100% | 76 to 100% | 76 to 100% | 76 to 100% | 76 to 100% | 51 to 75% |  |  |  | 
CCNN(CC)c1nc(OCc2ccc(F)cc2)ncc1F [Compound 352] | 0 to 25% | 0 to 25% | 0 to 25% | 0 to 25% | 0 to 25% | 0 to 25% | 0 to 25% | 26 to 50% |  |  |  | 
NN(c1nc(OCc2ccc(F)cc2)ncc1F)C1CCCCC1 [Compound 353] | 0 to 25% | 0 to 25% | 0 to 25% | 0 to 25% | 26 to 50% | 26 to 50% | 26 to 50% | 76 to 100% |  |  |  | 
CC(Oc1ncc(F)c(N)n1)c1ccc(C(F)(F)F)nc1 (centres unmarked) [Compound 356] | 26 to 50% | 51 to 75% | 26 to 50% | 51 to 75% | 51 to 75% | 0 to 25% | 51 to 75% | 26 to 50% |  |  |  | 
Nc1nc(OCC2CCCC2)ncc1F [Compound 370] | 0 to 25% | 0 to 25% | 0 to 25% | 0 to 25% | 26 to 50% | 26 to 50% | 26 to 50% | 26 to 50% |  |  |  | 
Fc1cnc(OCc2ccccc2)nc1NNc1ccccn1 [Compound 373] | 0 to 25% | 0 to 25% | 26 to 50% | 51 to 75% | 0 to 25% | 0 to 25% | 0 to 25% | 26 to 50% |  |  |  | 
CN1CCCC1CCOc1ncc(F)c(N)n1 (centres unmarked) [Compound 384] | 51 to 75% | 76 to 100% | 26 to 50% | 76 to 100% | 0 to 25% | 0 to 25% | 51 to 75% | 0 to 25% |  |  |  | 
O=C(OCNc1nc(OCc2ccc(F)cc2)ncc1F)C1CC1 [Compound 410] | 51 to 75% | 76 to 100% | 51 to 75% | 76 to 100% | 26 to 50% | 26 to 50% | 26 to 50% | 51 to 75% |  |  |  | 
O=C(Nc1nc(OCc2ccc(F)cc2)ncc1F)c1cccc2nnsc12 [Compound 411] | 76 to 100% | 76 to 100% | 26 to 50% | 26 to 50% | 26 to 50% | 26 to 50% | 51 to 75% | 51 to 75% |  |  |  | 
CN(C)/C=N/c1nc(OCc2cccc(C#N)c2)ncc1F [Compound 418] | 76 to 100% | 76 to 100% | 76 to 100% | 76 to 100% | 0 to 25% | 0 to 25% | 51 to 75% | 51 to 75% |  |  |  | 
Cc1nc(COc2ncc(F)c(N)n2)cs1 [Compound 436] | 76 to 100% | 76 to 100% | 76 to 100% | 76 to 100% | 51 to 75% | 26 to 50% | 76 to 100% | 76 to 100% |  |  |  | 
CCOCNc1nc(OCc2ccc(OC)c(F)c2)ncc1F [Compound 452] | 76 to 100% | 76 to 100% | 76 to 100% | 76 to 100% | 0 to 25% | 0 to 25% | 0 to 25% | 26 to 50% |  |  |  | 
CC(C)(C)OC(=O)NOc1ncc(F)c(N)n1 [Compound 481] | 76 to 100% | 76 to 100% | 76 to 100% | 76 to 100% | 26 to 50% | 76 to 100% | 76 to 100% | 76 to 100% |  |  |  | 
CC(Oc1ncc(F)c(/N=C/N(C)C)n1)c1ccc(F)cc1 (centres unmarked) [Compound 483] | 76 to 100% | 76 to 100% | 76 to 100% | 76 to 100% | 0 to 25% | 0 to 25% | 26 to 50% | 76 to 100% |  |  |  | 
COc1ncc(Oc2ncc(F)c(N)n2)cn1 [Compound 488] | 0 to 25% | 0 to 25% | 0 to 25% | 0 to 25% | 0 to 25% | 0 to 25% | 26 to 50% | 26 to 50% |  |  |  | 
COc1ccccc1CCOc1ncc(F)c(N)n1 [Compound 524] | 0 to 25% | 51 to 75% | 0 to 25% | 51 to 75% | 0 to 25% | 0 to 25% | 51 to 75% | 51 to 75% |  |  |  | 
Cc1ccc(COc2ncc(F)c(NN)n2)cc1 [Compound 538] | 26 to 50% | 51 to 75% | 51 to 75% | 76 to 100% | 0 to 25% | 0 to 25% | 26 to 50% | 51 to 75% |  |  |  | 
Nc1nc(OCc2cc3ccccc3o2)ncc1F [Compound 554] |  |  |  |  | 0 to 25% | 51 to 75% | 76 to 100% | 76 to 100% | 26 to 50% | 76 to 100% | 26 to 50% | 76 to 100%
